According to patent EP0501354B1, “Anticataract composition” (Senju Pharmaceutical Co., Ltd., priority 1991, dated 1992):

Tests used:
[1] = Body weight during treatment of streptozotocin-diabetic rats; type: in vivo, male SD rats; settings: 100 mg/kg/day intraperitoneally once a day for 56 days; STZ-diabetic rats
Method: Streptozotocin (hereafter abbreviated as STZ), 70 mg/kg, was administered intravenously to 28 male SD rats aged 4 weeks to induce diabetes. Thereafter, the animals were divided into three groups (two groups consisting of 10 animals each and a group consisting of 8 animals). One group received 2% glutathione (dissolved in physiological saline, hereafter referred to as GSH group), another group S-(diethyl α,β-carboxyethyl)glutathione sodium (dissolved in physiological saline, hereafter referred to as DCE-EtGS group), and a third group physiological saline (hereafter referred to as control group), all intraperitoneally in a volume of 0.5 ml/100 g body weight once a day for 56 days (100 mg/kg/day as active substance). The lens was examined with a slit lamp under mydriasis with Mydrin-P before the beginning of drug administration and every seven days after initiation of administration. The degree of cataract was scored according to the rating scale of Sasaki et al. (Ophthalmic Res. 15: 185-190, 1983) and the anticataract activity of each drug was tested by time series analysis of variance. Body weights were taken on each observation day. Incidentally, blood glucose levels were determined 5 days after administration of STZ and the study was continued only after confirmation of hyperglycemia.

[2] = test system: streptozotocin-induced diabetic cataract; test: Inhibitory effect on streptozotocin-induced diabetic cataract (slit lamp, rating scale of Sasaki et al.); type: in vivo, male SD rats; settings: for time at which cataract scores were reached compared with control group / degree of progression of cataract, time series analysis of variance vs control group: 100 mg/kg/day intraperitoneally once a day for 56 days; for time at which cataract scores were reached compared with control group: rating scale of Sasaki et al. 0-6; for degree of progression of cataract, time series analysis of variance vs control group: scored every seven days; for vacuolation rate (of the eyes): after 7 days, 100 mg/kg/day intraperitoneally once a day, STZ 70 mg/kg i.v. rats, control group 45%
Method: Streptozotocin (hereafter abbreviated as STZ), 70 mg/kg, was administered intravenously to 28 male SD rats aged 4 weeks to induce diabetes. Thereafter, the animals were divided into three groups (two groups consisting of 10 animals each and a group consisting of 8 animals). […] The lens was examined with a slit lamp under mydriasis with Mydrin-P before the beginning of drug administration and every seven days after initiation of administration. The degree of cataract was scored according to the rating scale of Sasaki et al. (Ophthalmic Res. 15: 185-190, 1983) and the anticataract activity of each drug was tested by time series analysis of variance. Body weights were taken on each observation day. […] Rating scale of Sasaki et al. 0: No abnormality. 1: Vacuoles are present in the equator of the lens. 2: Vacuoles spread toward the anterior pole beneath the cortex of the anterior lens capsule. 3: Vacuole begin to merge. 4: The deep layer of the cortex of the anterior lens capsule is cloudy. 5: The central part of the lens is milk white in color. 6: Virtually the entire lens is milk white in color (mature cataract).

Structure (SMILES)	Body weight gain vs control group [1]	time at which cataract scores were reached compared with control group [2]	degree of progression of cataract, time series analysis of variance vs control group [2]	vacuolation rate (of the eyes) [2] [%]
CCOC(=O)CC(SCC(NC(=O)CCC(N)C(=O)O)C(=O)NCC(=O)O)C(=O)OCC (stereo not drawn) [DCE-EtGS, S-(Diethyl α,β-dicarboxyethyl)glutathione sodium]	significantly greater	scores of 2, 4, 5 and 6 being reached later than in the control group	significant delay of progression	25
N[C@@H](CCC(=O)N[C@@H](CS)C(=O)NCC(=O)O)C(=O)O [GSH, glutathione, reference compound]	–	scores of 5 and 6 were reached later than in the control group	no significant difference from the control group	56.3
